# Measured values from ChEMBL document CHEMBL5055639, “ω-Functionalized Lipid Prodrugs of HIV NtRTI Tenofovir with Enhanced Pharmacokinetic Properties” (J Med Chem, 2021).
# Experiments:
# [1] = Metabolic stability in human liver microsomes assessed as half life at 3 uM measured up to 30 min in presence of NADPH by LC-MS/MS analysis; format: ADME, Microsome; details: 0.5 h
# Cytochrome P450 2D6 = Cytochrome P450 2D6 (Homo sapiens, UniProt P10635); experiment: Inhibition of human recombinant CYP2D6 expressed in insect microsome using (3-[2-([…]-N-methylammonium)-ethyl]-7-methoxy-4-methylcoumarin iodide as a substrate incubated for 30 mins followed by addition of NADPH regenerating system measured immediately by fluorescence based analysis; format: ADME, microsomes
# [2] = Therapeutic index, ratio of CC50 for cytotoxicity against HEK293T cells to IC50 for antiviral activity against human immunodeficiency virus expressed in HEK293T cells; format: toxicity, cell-based; details: read-out: Ratio CC50/IC50
# Cytochrome P450 3A4 = Cytochrome P450 3A4 (Homo sapiens, UniProt P08684); experiment: Inhibition of human recombinant CYP3A4 expressed in insect microsome using 7-benzyloxy-4-trifluoromethylcoumarin as a substrate incubated for 30 mins followed by addition of NADPH regenerating system measured immediately by fluorescence based analysis; format: ADME, microsomes
# HEK-293T [3] = experiment: Cytotoxicity against HEK293T cells assessed as reduction in cell viability measured after 48 hrs by CellTiter 96 Aqueous One Solution reagent based cell proliferation assay; details: human
# [4] = Prodrug conversion in C57BL/6 mouse liver assessed as Cmax of TFV metabolite at 10 mg/kg, po measured up to 24 hrs by LC-MS/MS analysis; format: ADME, organism-based; parameters: dose 10 mg/kg, time < 24 hrs, route po; details: in vivo
# [5] = Cmax in C57BL/6 mouse plasma at 10 mg/kg, po measured up to 24 hrs by LC-MS/MS analysis; format: ADME, organism-based; parameters: dose 10 mg/kg, time < 24 hrs, route po; details: in vivo
# [6] = Plasma protein binding in C57BL/6 mouse at 10 mg/kg, po measured up to 24 hrs by LC-MS/MS; format: ADME, organism-based; details: read-out: PPB
# [7] = Prodrug conversion in C57BL/6 mouse plasma assessed as AUC(0 to 24 hrs) of TFV metabolite at 10 mg/kg, po measured up to 24 hrs by LC-MS/MS analysis; format: ADME, organism-based; parameters: time < 24 hrs, dose 10 mg/kg, route po; details: in vivo
# [8] = Ratio of prodrug AUC(0 to 24 hrs) to TFV AUC(0 to 24 hrs) in C57BL/6 mouse liver at 10 mg/kg, po measured up to 24 hrs by LC-MS/MS analysis; format: ADME, organism-based; details: in vivo
# [9] = Half life in C57BL/6 mouse plasma at 10 mg/kg, po measured up to 24 hrs by LC-MS/MS analysis; format: ADME, organism-based; details: in vivo
# [10] = Prodrug conversion in C57BL/6 mouse liver assessed as Tmax of TFV metabolite at 10 mg/kg, po measured up to 24 hrs by LC-MS/MS analysis; format: ADME, organism-based; details: in vivo
# [11] = AUC(0 to 24 hrs) in C57BL/6 mouse plasma at 10 mg/kg, po measured up to 24 hrs by LC-MS/MS analysis; format: ADME, organism-based; parameters: time < 24 hrs, dose 10 mg/kg, route po; details: in vivo
# [12] = AUC(0 to 24 hrs) in C57BL/6 mouse liver at 10 mg/kg, po measured up to 24 hrs by LC-MS/MS analysis; format: ADME, organism-based; parameters: time < 24 hrs, dose 10 mg/kg, route po; details: in vivo
# [13] = Prodrug conversion in C57BL/6 mouse plasma assessed as Tmax of TFV metabolite at 10 mg/kg, po measured up to 24 hrs by LC-MS/MS analysis; format: ADME, organism-based; details: in vivo
# [14] = Cmax in C57BL/6 mouse liver at 10 mg/kg, po measured up to 24 hrs by LC-MS/MS analysis; format: ADME, organism-based; parameters: time < 24 hrs, dose 10 mg/kg, route po; details: in vivo
# [15] = Prodrug conversion in C57BL/6 mouse liver assessed as AUC(0 to 24 hrs) of TFV metabolite at 10 mg/kg, po measured up to 24 hrs by LC-MS/MS analysis; format: ADME, organism-based; parameters: time < 24 hrs, dose 10 mg/kg, route po; details: in vivo
# [16] = Tmax in C57BL/6 mouse plasma at 10 mg/kg, po measured up to 24 hrs by LC-MS/MS analysis; format: ADME, organism-based; details: in vivo
# [17] = Tmax in C57BL/6 mouse liver at 10 mg/kg, po measured up to 24 hrs by LC-MS/MS analysis; format: ADME, organism-based
# [18] = Prodrug conversion in C57BL/6 mouse plasma assessed as Cmax of TFV metabolite at 10 mg/kg, po measured up to 24 hrs by LC-MS/MS analysis; format: ADME, organism-based; parameters: time < 24 hrs, dose 10 mg/kg, route po; details: in vivo
# [19] = Ratio of prodrug AUC(0 to 24 hrs) to TFV AUC(0 to 24 hrs) in C57BL/6 mouse plasma at 10 mg/kg, po measured up to 24 hrs by LC-MS/MS analysis; format: ADME, organism-based; details: in vivo
# [20] = test system: Human immunodeficiency virus; experiment: Antiviral activity against human immunodeficiency virus expressed in HEK293T cells coexpressing firefly luciferase gene incubated for 48 hrs by Bright-Glo luciferase assay; format: functional, organism-based; details: Human immunodeficiency virus 1, HEK-293T
# HEK-293T [21] = experiment: Cytotoxicity against HEK293T cells assessed as reduction in cell viability in absence of HSA measured after 48 hrs by CellTiter 96 Aqueous One Solution reagent based cell proliferation assay; details: human
# [22] = test system: Human immunodeficiency virus; experiment: Antiviral activity against human immunodeficiency virus expressed in HEK293T cells coexpressing firefly luciferase gene incubated for 48 hrs in absence of HSA by Bright-Glo luciferase assay; format: functional, organism-based; details: Human immunodeficiency virus 1, HEK-293T
# [23] = Therapeutic index, ratio of CC50 for cytotoxicity against HEK293T cells in absence of HSA to IC50 for antiviral activity against human immunodeficiency virus expressed in HEK293T cells in absence of HSA; format: toxicity, cell-based; details: read-out: Ratio CC50/IC50
# [24] = C57BL/6, mouse, liver, read-out: Tmax
# Chain of Cytochrome P450 3A4 (P08684 whole entry): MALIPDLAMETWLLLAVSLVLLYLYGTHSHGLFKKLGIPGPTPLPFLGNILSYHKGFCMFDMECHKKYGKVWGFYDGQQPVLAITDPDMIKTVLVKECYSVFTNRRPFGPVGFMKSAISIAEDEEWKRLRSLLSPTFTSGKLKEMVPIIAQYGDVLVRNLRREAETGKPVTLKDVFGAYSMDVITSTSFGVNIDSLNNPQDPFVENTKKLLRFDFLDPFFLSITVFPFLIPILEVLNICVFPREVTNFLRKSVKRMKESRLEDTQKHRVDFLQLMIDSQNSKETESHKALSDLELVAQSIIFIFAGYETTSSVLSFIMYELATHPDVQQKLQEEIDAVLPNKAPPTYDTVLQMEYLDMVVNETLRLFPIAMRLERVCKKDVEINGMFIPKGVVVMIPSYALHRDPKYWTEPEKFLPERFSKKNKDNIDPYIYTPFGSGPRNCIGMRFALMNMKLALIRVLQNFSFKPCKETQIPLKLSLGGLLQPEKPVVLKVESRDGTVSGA
# Chain of Cytochrome P450 2D6 (P10635 whole entry): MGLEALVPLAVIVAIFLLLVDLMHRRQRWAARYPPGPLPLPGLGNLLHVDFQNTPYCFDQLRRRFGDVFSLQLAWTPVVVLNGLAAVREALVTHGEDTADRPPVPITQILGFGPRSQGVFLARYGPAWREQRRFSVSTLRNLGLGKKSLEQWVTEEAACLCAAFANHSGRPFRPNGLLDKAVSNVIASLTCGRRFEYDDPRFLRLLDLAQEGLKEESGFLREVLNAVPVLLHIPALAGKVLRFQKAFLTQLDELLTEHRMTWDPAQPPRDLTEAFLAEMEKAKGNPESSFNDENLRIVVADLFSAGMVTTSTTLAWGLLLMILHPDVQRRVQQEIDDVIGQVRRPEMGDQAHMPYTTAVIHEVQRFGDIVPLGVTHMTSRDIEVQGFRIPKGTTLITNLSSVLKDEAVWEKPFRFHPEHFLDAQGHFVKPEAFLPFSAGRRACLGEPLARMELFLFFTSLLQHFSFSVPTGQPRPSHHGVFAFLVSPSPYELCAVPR
Compound,t1/2 [1],IC50 (Cytochrome P450 2D6),selectivity ratio [2],IC50 (Cytochrome P450 3A4),CC50 (HEK-293T [3]),IC50 [20],also measured
C[C@H](Cn1cnc2c(N)ncnc21)OCP(=O)(O)OCCCCCCCCCCCCCCCCCC#CC(F)(F)F.N,> 2 h,> 20 µM,423,> 20 µM,78.7 µM,,
C[C@H](Cn1cnc2c(N)ncnc21)OCP(=O)(O)OCCCOCCCCCCCCCCCCCC#CC(F)(F)F.N,> 2 h,> 20 µM,> 4350,,> 100 µM,0.023 µM,"Cmax [4]: 1380 ng/mL; Cmax [5]: 153 ng/mL; fraction unbound at 24 h [6]: < 0.001; AUC [7]: 425 ng·h/mL; Ratio AUC [8]: 0.06; t1/2 [9]: 2.69 h; Tmax [10]: 4 h; AUC [11]: 643 ng·h/mL; AUC [12]: 1310 ng·h/mL; Tmax [13]: 1 h; Cmax [14]: 558 ng/mL; AUC [15]: 21900 ng·h/mL; Tmax [16]: 2 h; Tmax [17, 24]: 1 h; Cmax [18]: 42.8 ng/mL; Ratio AUC [19]: 1.51"
C[C@H](Cn1cnc2c(N)ncnc21)OCP(=O)(O)OCCCCCCCCCCCCCCCCC#C[Si](C)(C)C.N,> 2 h,,792,,68.1 µM,0.086 µM,
C#CCCCCCCCCCCCCCCOCCCOP(=O)(O)CO[C@H](C)Cn1cnc2c(N)ncnc21.N,> 2 h,> 20 µM,> 758,> 20 µM,> 100 µM,0.132 µM,
CCCCCCCCCCCCCCCCSCCCOP(=O)(O)CO[C@H](C)Cn1cnc2c(N)ncnc21.N,0.7 h,,4980,,49.8 µM,0.01 µM,
C#CCCCCCCCCCCCCCCCCCCOP(=O)(O)CO[C@H](C)Cn1cnc2c(N)ncnc21.N,> 2 h,,84,> 50 µM,99.5 µM,1.18 µM,
C[C@H](Cn1cnc2c(N)ncnc21)OCP(=O)(O)OCCCOCCCCCCCCCCCCC#C[Si](C)(C)C.N,> 2 h,21.7 µM,,> 20 µM,,0.069 µM,"Cmax [4]: 671 ng/mL; Cmax [5]: 120 ng/mL; fraction unbound at 24 h [6]: < 0.001; AUC [7]: 142 ng·h/mL; t1/2 [9]: 2.49 h; Tmax [10]: 4 h; AUC [11]: 550 ng·h/mL; AUC [12]: 101000 ng·h/mL; Tmax [13]: 12 h; Cmax [14]: 8130 ng/mL; AUC [15]: 11200 ng·h/mL; Tmax [16]: 2 h; Tmax [17, 24]: 4 h; Cmax [18]: 14.1 ng/mL"
CCCCCCCCCCCCCCCOP(=O)(O)CO[C@H](C)Cn1cnc2c(N)ncnc21.N,0.217 h,,> 49,,> 100 µM,2.06 µM,
C[C@H](Cn1cnc2c(N)ncnc21)OCP(=O)(O)OCCCCCCCCCCCCCCCCCCCC(F)(F)F.N,> 2 h,> 20 µM,603,> 20 µM,72.4 µM,0.12 µM,
C[C@H](Cn1cnc2c(N)ncnc21)OCP(=O)(O)OCCCOCCCCCCCCCCCCCCCC(F)(F)F.N,> 2 h,> 20 µM,> 2040,> 20 µM,> 100 µM,0.049 µM,"Cmax [4]: 1120 ng/mL; fraction unbound at 24 h [6]: < 0.001; AUC [7]: 337 ng·h/mL; Ratio AUC [8]: 4.81; Tmax [10]: 24 h; Tmax [13]: 8 h; AUC [15]: 22600 ng·h/mL; Tmax [16]: 2 h; Tmax ([17]; mouse, in vivo, po, 10 mg/kg, 24 h): 2 h; Cmax [18]: 22.1 ng/mL; Ratio AUC [19]: 3.8"
CCCCCCCCCCCCCCCCCCOP(=O)(O)CO[C@H](C)Cn1cnc2c(N)ncnc21.N,0.217 h,,895,,84.1 µM,0.094 µM,
C#CCCCCCCCCCCCCCCCCOP(=O)(O)CO[C@H](C)Cn1cnc2c(N)ncnc21.N,> 2 h,,> 49,,> 100 µM,2.03 µM,
C[C@H](Cn1cnc2c(N)ncnc21)OCP(=O)(O)O [TENOFOVIR ANHYDROUS],,> 50 µM,22,45.8 µM,35.4 µM,1.6 µM,CC50 (HEK-293T [21]): > 100 µM; IC50 [22]: 2.06 µM; selectivity ratio [23]: > 49
